{
  "source": "paper PMC9822434",
  "about": "“Estradiol-Based Salicylaldehyde (Thio)Semicarbazones and Their Copper Complexes with Anticancer, Antibacterial and Antioxidant Activities” (Molecules, 2022)",
  "key": {"MCF-7": {"system": "MCF-7", "assay": "MTT cytotoxicity assay", "format": "cell-based, human", "conditions": "Homo sapiens, MCF7; MCF-7, MTT, 24 h incubation time", "how_it_was_run": "(§1)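 Cells were exposed 24 h to 0–20 µM (2.5, 5, 10, 15, 20 µM) Cu(II) complexes, ligands or metal salts (equimolar ligand–CuCl2), then 0.5 mg/mL MTT for 1 h at 37 °C. Formazan was dissolved in DMSO and read at 570 nm; viability is relative to untreated control as 100%.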"}, "MCF-7 KCR": {"system": "MCF-7 KCR", "assay": "MTT cytotoxicity assay", "format": "cell-based, human", "conditions": "Homo sapiens, MCF7, 24 h incubation time", "how_it_was_run": "as §1"}, "A549": {"system": "A549", "assay": "MTT cytotoxicity assay", "format": "cell-based, human", "conditions": "Homo sapiens, 24 h incubation time", "how_it_was_run": "as §1"}, "[1]": {"assay": "DPPH free radical scavenging assay", "how_it_was_run": "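DPPH at 50 µM final mixed with compound (5–50 µM final) in ethanol at 25.0 ± 0.1 °C in tandem cuvette, read spectrophotometrically. Antioxidant activity percentage, IC50 (concentration reducing 50% of DPPH) and Trolox equivalent capacity derived; Trolox as positive control.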"}},
  "data": [
    {"compound": "C[C@]12CC[C@@H]3c4cc(C=NNC(N)=S)c(O)cc4CC[C@H]3[C@@H]1CCC2O", "note": "(stereo partly drawn) [estradiol-TSC, 2-((3,17 Dihydroxy-estra-1,3,5(10)-triene-2-yl)methylene)Hydrazine-1-carbothioamide]", "values": [
      {"measurement": "IC50", "setting": "MCF-7", "result": "> 20", "unit": "µM"},
      {"measurement": "IC50", "setting": "MCF-7 KCR", "result": "> 20", "unit": "µM"},
      {"measurement": "IC50", "setting": "A549", "result": "20.5 ± 1.07", "unit": "µM"},
      {"measurement": "TEAC (Trolox equivalent antioxidant capacity)", "setting": "[1]; DPPH assay in ethanol, 25 °C", "result": 0.8},
      {"measurement": "% Scavenging Effect", "setting": "[1]; DPPH:compound = 1:1 ratio after 30 min, ethanol, 25 °C", "result": 72.0, "unit": "%"},
      {"measurement": "IC50", "setting": "[1]; in ethanol, T = 25 °C, cDPPH = 50 µM, ccompound = 5−50 µM", "result": 14.6, "unit": "µM"}
    ]}
  ]
}
